# Measurements published in patent US20180249713A1, “Composition for Protection of Plants, Fruit and Vegetables” (priority 2015, published 2018).
# Read-outs that look alike come from different tables or passages of the source.
# Assays:
# [1] = system: Septoria tritici
# [2] = system: Puccinia striiformis f. sp. tritici (Pst); experiment: Indoor greenhouse study, stripe (yellow) rust, preventive and curative; format: in vivo; conditions: preventive spray one day prior to infection, curative three days later; 30, 100, 300, 1000 ppm; evaluated 16 days later
# Description: In this study we used tebuconazole as fungicidal reference (control) and the above outlined biocide A and B compositions for testing the effect on Stripe (yellow) rust, caused by Puccinia striiformis f. sp. tritici (Pst). The applied method also tests preventive and curative effects of the elected fungicide compositions.
# The scale used is 0=no attack;
# 1=necrose with a few pustules; 5=half of the infected leafs are attacked by pustules; 10=100% attack of the leafs.
# The leafs were sprayed preventive one day prior to infection with Stripe (yellow) rust. Three days later the plants were sprayed for curative purposes.
# 16 days later the plant were evaluated.
# The following doses were used for both preventive and curative experiments: 30, 100, 300, 1000 ppm
# [3] = system: Fusarium; experiment: Effect on Fusarium (Mycelie Growth) in vitro study; format: cell-based, Fusarium culmorum
# Method: (§1) Sensitivity towards Tebuconazole (control) and Biocides A and B (see tables 1A and 1B) respectively, was tested in petri dishes using spore suspension containing 2.5×10^4 spores/ml of each fungal isolate or a mycelium block. 5-6 different concentrations of Biocide A and B respectively, as outlined in table 3 below were used in the tests.
# (§2) For the tests, the two biocides A and B where individually mixed with potato dextrose broth to achieve the appropriate test concentration. Percent inhibition was assessed after a few days depending on the fungi and its growth rates measured in relation to control.
# [4] = system: Fusarium; experiment: Effect on Fusarium (Spore Growth) in vitro study; format: cell-based, Fusarium culmorum
# Method: as §1, §2
compound,measurement,setting,value
CC(C)(C)C(O)(CCc1ccc(Cl)cc1)Cn1cncn1 (stereo not shown) [Tebuconazole],Growth,[1]; 0.1 ppm,10%
same,Growth,[1]; 1 ppm,5%
same,Growth,[1]; 3.3 ppm,0%
same,Growth,[1]; 10 ppm,0%
same,Growth,[1]; 33 ppm,0%
same,Growth,[1]; 100 ppm,0%
same,effect on Stripe (yellow) rust attack,[2],able to eliminate the fungi attack both in a preventive and a curative manner
same,Growth,[3]; 0.1 ppm,10%
same,Growth,[3]; 1 ppm,10%
same,Growth,[3]; 3.3 ppm,0%
same,Growth,[3]; 10 ppm,0%
same,Growth,[3]; 33 ppm,0%
same,Growth,[3]; 100 ppm,0%
same,Growth,[4]; 0.1 ppm,25%
same,Growth,[4]; 1 ppm,0%
same,Growth,[4]; 3.3 ppm,0%
same,Growth,[4]; 10 ppm,0%
same,Growth,[4]; 33 ppm,0%
same,Growth,[4]; 100 ppm,0%
